In US20210299079A1, “MONOMETHYL FUMARATE-CARRIER CONJUGATES AND METHODS OF THEIR USE” (Flagship Pioneering Innovations V, Inc., priority 2018, published 2021):
Counter-ions that a name gives are not always drawn.

What was measured:
MIP-1β = experiment: Neutrophil Chemokine Production Assay: MIP-1β; assay type: cell-based; conditions: human neutrophils, 12 h
Method: (§1) A volume 25 mL of human blood was layered over 15 mL of Histopaque®-1077 and centrifuged at 500 g, R^T, for 30 min with no break applied to the centrifuge. The PBMC band and Histopaque®-1077 layer were removed leaving behind the bottom red layer which was mixed with 40 mL of 1× red blood cell (RBC) lysis buffer (Sigma-Aldrich) was and split into two 50 mL tubes. The volume for both fractions was brought to 50 mL with RBC lysis buffer, mixed by inversion, and then incubated at RT for 10 min. Solutions were centrifuged at 250 g, for 10 min at RT and the supernatant liquids removed. The reddish pellets were re-suspended in 1 mL of RBC lysis buffer and combined. The cell suspension was incubated for 5 min at RT in RBC lysis buffer. After incubation 45 mL of Hanks Balanced Salt Solution with no calcium, magnesium or phenol red (HBSS—) was added, the cell suspension was spun (250 g for 10 min at RT), and supernatant liquids were removed. The white pellet was re-suspended in 1 mL of HBSS—, and cell counts were determined. The neutrophil cell suspension was brought to a concentration of 1.11e6 cells/mL in RPMI complete (Sigma-Aldrich), and 180 μL of cell suspension was transferred to all wells within a sterile 96-well tissue culture treated plate resulting in 2.0×10^5 cells/well. […] After incubation, 10 μL of 2 μg/mL LPS solution in RPMI complete was added to each well except for control wells, which received an additional 10 μL of media. Cells were incubated for 12 h (37° C., 5% CO2), after which plates were centrifuged at 250 g, RT, for 5 min and supernatant liquids were obtained and stored at −80° C. until analyzed via Luminex® Multiplex Assay for various chemokines and cytokines. Three data points were acquired from two different blood donors and averaged.

MIP-1α = experiment: Neutrophil Chemokine Production Assay: MIP-1α; assay type: cell-based; conditions: human neutrophils, 12 h
Method: as §1

IL-8 = experiment: Neutrophil Chemokine Production Assay: IL-8; assay type: cell-based; conditions: human neutrophils, 12 h
Method: as §1

[1] = In vitro Colonic Material Stability Assay; assay type: in vitro ADME; conditions: colonic material slurry in YCFAC media, anaerobic, 1 or 10 μM
Method: Assay 3. In vitro Colonic Material Stability Assay. This assay was used to assess the stability of a conjugate in a large intestine. All experiments were performed in an anaerobic chamber containing 90% nitrogen, 5% hydrogen and 5% carbon dioxide. Colonic material was resuspended as a slurry (15% w/v final concentration) in pre-reduced, anaerobically sterilized dilution blanks (Anaerobe Systems AS-908). The colonic material was then inoculated into 96 well plates containing YCFAC media (Anaerobe Systems AS-680) or other suitable media (6.7 μL slurry into 1 mL total media). Compounds or groups of compounds were added to each individual well to reach a final analyte concentration of 1 or 10 μM, and the material was mixed by pipetting. Sample was removed after set timepoints (0, 120, 240, 480, 1440, 2880 minutes after initiation of the assay), quenched with acetonitrile containing internal standard, and analyzed by LC/MS.

[2] = Stability of conjugates in Simulated Gastric Fluid (SGF); assay type: in vitro ADME; conditions: SGF pH 1.6 with pepsin, 37° C., 1 μM compound
Method: Assay 1. Stability of conjugates in Simulated Gastric Fluid (SGF). This assay was used to assess the stability of a conjugate in a stomach.
Medium was prepared by dissolving 2 g of sodium chloride in 0.6 L in ultrapure water (MilliQ®, Millipore Sigma, Darmstadt, Germany). The pH was adjusted to 1.6 with 1N hydrochloric acid, and the volume was then adjusted to 1 L with purified water.
60 mg FaSSIF powder (Biorelevant™, London, UK) were dissolved in 500 mL buffer (above). Pepsin was added (0.1 mg/mL) (Millipore Sigma, Darmstadt, Germany), and the solution was stirred. The resulting SGF media were used fresh for each experiment.
(§2) Test compounds were dissolved in DMSO stock to 1 mM. An aliquot of the DMSO stock solution was removed and diluted in the SGF Media in 15 mL falcon tubes to generate a total compound concentration of 1 μM. A 1 mL aliquot was immediately removed and diluted once with 1 volume of acetonitrile for TO timepoint. The mixture was sealed and mixed at 37° C. in an incubator. Aliquots (1 mL) were removed at regular intervals and immediately quenched by the addition of 1 volume of acetonitrile. The resulting samples were analyzed by LC/MS to determine degradation rates in SGF.

[3] = Stability of conjugates in Simulated Intestinal Fluid (SIF); assay type: in vitro ADME; conditions: SIF pH 6.7 with pancreatin, 37° C., 1 μM compound
Method: Assay 2. Stability of conjugates in Simulated Intestinal Fluid (SIF). This assay was used to assess the stability of a conjugate in a small intestine.
Phosphate buffer was prepared by dissolving 0.42 g of sodium hydroxide pellets and 3.95 g of monobasic sodium phosphate monohydrate and 6.19 g of sodium chloride in ultrapure water (MilliQ®, Millipore Sigma, Darmstadt, Germany). The pH was adjusted to 6.7 using aq. HCl and aq. NaOH, as necessary, and the solution was diluted with ultrapure water to produce 1 L of the pH 6.7 buffer.
112 mg FaSSIF powder (Biorelevant™, London, UK) was dissolved in 50 mL of the pH 6.7 buffer. 2 to 3 mL of the resulting solution were then added to 500 mg pancreatin (Millipore Sigma, Darmstadt, Germany). The resulting mixture was agitated by finger tapping the vessel containing the mixture until milky suspension formed. At this time, the remainder of the 50 mL FaSSiF/pH 6.7 buffer solution was added. The resulting suspension was flipped upside down 10 times to produce SIF, which was used fresh.
as §2, with “SIF media” for “SGF Media”, “produce” for “generate”, “mixture with a tested” for “total”, “agitated” for “mixed”, “rates” for “rates in SGF.”

With `CC(O)CC(=O)O` (stereo not drawn) [β-hydroxybutyric acid] the “% MIP-1β (DMSO + LPS = 100%)” value (MIP-1β; Conc. 200.0 μM) was “+ (+ = <90% Vehicle)”, the “% MIP-1β (DMSO + LPS = 100%)” value (MIP-1β; Conc. 2000.0 μM) was “+ (+ = <90% Vehicle)” and the “% MIP-1α (Vehicle + LPS = 100%)” value (MIP-1α; Conc. 200.0 μM) was “− (− = >90% Vehicle)”. The “% MIP-1α (Vehicle + LPS = 100%)” value (MIP-1α; Conc. 2000.0 μM) was “++ (++ = <70% Vehicle)”, the “% IL-8 (Vehicle + LPS = 100%)” value (IL-8; Conc. 200.0 μM) was “− (− = >90% Vehicle)” and the “% IL-8 (Vehicle + LPS = 100%)” value (IL-8; Conc. 2000.0 μM) was “+ (+ = <90% Vehicle)”.

For `CCCC(=O)O[C@@H]1[C@@H](OC(=O)CCC)[C@H](OC(=O)/C=C/C(=O)OC)O[C@H](CO)[C@H]1OC(=O)CCC` [Compound 38, 1-methyl (2S,3R,4S,5R,6R)-3,4,5-tris(butanoyloxy)-6-(hydroxymethyl)oxan-2-yl (2E)-but-2-enedioate], the “Assay 3 (% Remaining at 24 h)” value [1] was “A (A: <25% of the tested compound remaining)”, the “Assay 1 (SGF) (% Remaining @ 1 hour)” value [2] was “C (C: >75% of the tested compound remaining)” and the “Assay 2 (SIF) (% @ Remaining 4 hours)” value [3] was “A (A: <25% of the tested compound remaining)”.

With `CCCC(=O)O[C@H]1O[C@H](COC(=O)/C=C/C(=O)OC)[C@@H](OC(=O)CCC)[C@H](OC(=O)CCC)[C@H]1OC(=O)CCC` [Compound 40, 1-methyl 4-[(2R,3R,4S,5R,6R)-3,4,5,6-tetrakis(butanoyloxy)oxan-2-yl]methyl (2E)-but-2-enedioate] the “Assay 3 (% Remaining at 24 h)” value [1] was “A (A: <25% of the tested compound remaining)”, the “Assay 1 (SGF) (% Remaining @ 1 hour)” value [2] was “B (B: 25-75% of the tested compound remaining)” and the “Assay 2 (SIF) (% @ Remaining 4 hours)” value [3] was “A (A: <25% of the tested compound remaining)”.

With `CCCC(=O)O[C@@H]1O[C@H](COC(=O)/C=C/C(=O)OC)[C@@H](OC(=O)CCC)[C@H](OC(=O)CCC)[C@H]1OC(=O)CCC` [Compound 23, Methyl (((2R,3R,4S,5R,6S)-3,4,5,6-tetrakis(butyryloxy)tetrahydro-2H-pyran-2-yl)methyl) fumarate] the “Assay 3 (% Remaining at 24 h)” value [1] was “A (A: <25% of the tested compound remaining)”, the “Assay 1 (SGF) (% Remaining @ 1 hour)” value [2] was “B (B: 25-75% of the tested compound remaining)” and the “Assay 2 (SIF) (% @ Remaining 4 hours)” value [3] was “A (A: <25% of the tested compound remaining)”.

With `CCCC(=O)O[C@@H]1[C@@H](OC(=O)CCC)[C@H](C)O[C@H](OC(=O)/C=C/C(=O)OC)[C@@H]1OC(=O)CCC` [Compound 14, Methyl ((2R,3R,4R,5S,6S)-3,4,5-tris(butyryloxy)-6-methyltetrahydro-2H-pyran-2-yl) fumarate] the “Assay 3 (% Remaining at 24 h)” value [1] was “C (C: >75% of the tested compound remaining)”, the “Assay 1 (SGF) (% Remaining @ 1 hour)” value [2] was “C (C: >75% of the tested compound remaining)” and the “Assay 2 (SIF) (% @ Remaining 4 hours)” value [3] was “A (A: <25% of the tested compound remaining)”.

With `CCCC(=O)OC[C@H]1O[C@H](OC(=O)/C=C/C(=O)OC)[C@H](OC(=O)CCC)[C@@H](OC(=O)CCC)[C@@H]1OC(=O)CCC` [Compound 11, Methyl ((2R,3R,4S,5R,6R)-3,4,5-tris(butyryloxy)-6-((butyryloxy)methyl)tetrahydro-2H-pyran-2-yl) fumarate] the “Assay 3 (% Remaining at 24 h)” value [1] was “B (B: 25-75% of the tested compound remaining)”, the “Assay 1 (SGF) (% Remaining @ 1 hour)” value [2] was “B (B: 25-75% of the tested compound remaining)” and the “Assay 2 (SIF) (% @ Remaining 4 hours)” value [3] was “B (B: 25-75% of the tested compound remaining)”.

In the case of `CCC(=O)O[C@@H]1[C@@H](OC(=O)CC)[C@H](OC(=O)/C=C/C(=O)OC)OC[C@@H]1OC(=O)CC` [Compound 5, Methyl ((2S,3R,4S,5S)-3,4,5-tris(propionyloxy)tetrahydro-2H-pyran-2-yl) fumarate], the “Assay 3 (% Remaining at 24 h)” value [1] is reported as “A (A: <25% of the tested compound remaining)”, the “Assay 1 (SGF) (% Remaining @ 1 hour)” value [2] is reported as “C (C: >75% of the tested compound remaining)” and the “Assay 2 (SIF) (% @ Remaining 4 hours)” value [3] is reported as “C (C: >75% of the tested compound remaining)”.

In the case of `CCCC(=O)O[C@@H]1[C@@H](OC(=O)CCC)[C@@H](OC(=O)/C=C/C(=O)OC)O[C@H](CO)[C@H]1OC(=O)CCC` [Compound 39, 1-methyl (2R,3R,4S,5R,6R)-3,4,5-tris(butanoyloxy)-6-(hydroxymethyl)oxan-2-yl (2E)-but-2-enedioate], the “Assay 3 (% Remaining at 24 h)” value [1] is reported as “A (A: <25% of the tested compound remaining)”, the “Assay 1 (SGF) (% Remaining @ 1 hour)” value [2] is reported as “C (C: >75% of the tested compound remaining)” and the “Assay 2 (SIF) (% @ Remaining 4 hours)” value [3] is reported as “A (A: <25% of the tested compound remaining)”.

With `CCC(=O)O[C@H]1[C@@H](OC(=O)/C=C/C(=O)OC)OC[C@@H](OC(=O)CC)[C@H]1OC(=O)CC` [Compound 9, Methyl ((2R,3R,4R,5R)-3,4,5-tris(propionyloxy)tetrahydro-2H-pyran-2-yl) fumarate] the “Assay 3 (% Remaining at 24 h)” value [1] was “C (C: >75% of the tested compound remaining)”, the “Assay 1 (SGF) (% Remaining @ 1 hour)” value [2] was “C (C: >75% of the tested compound remaining)” and the “Assay 2 (SIF) (% @ Remaining 4 hours)” value [3] was “A (A: <25% of the tested compound remaining)”.

For `CCC(=O)OC[C@H]1O[C@H](OC(=O)/C=C/C(=O)OC)[C@H](OC(=O)CC)[C@@H](OC(=O)CC)[C@@H]1OC(=O)CC` [Compound 4, Methyl ((2R,3R,4S,5R,6R)-3,4,5-tris(propionyloxy)-6-((propionyloxy)methyl)tetrahydro-2H-pyran-2-yl) fumarate], the “Assay 3 (% Remaining at 24 h)” value [1] was “B (B: 25-75% of the tested compound remaining)”, the “Assay 1 (SGF) (% Remaining @ 1 hour)” value [2] was “B (B: 25-75% of the tested compound remaining)” and the “Assay 2 (SIF) (% @ Remaining 4 hours)” value [3] was “C (C: >75% of the tested compound remaining)”.

In the case of `CCCC(=O)O[C@H]1[C@H](OC(=O)CCC)[C@H](OC(=O)/C=C/C(=O)OC)O[C@@H](C)[C@H]1OC(=O)CCC` [Compound 13, Methyl ((2S,3S,4R,5R,6S)-3,4,5-tris(butyryloxy)-6-methyltetrahydro-2H-pyran-2-yl) fumarate], the “Assay 3 (% Remaining at 24 h)” value [1] is reported as “C (C: >75% of the tested compound remaining)”, the “Assay 1 (SGF) (% Remaining @ 1 hour)” value [2] is reported as “B (B: 25-75% of the tested compound remaining)” and the “Assay 2 (SIF) (% @ Remaining 4 hours)” value [3] is reported as “A (A: <25% of the tested compound remaining)”.

For `CCCC(=O)O[C@@H]1[C@@H](OC(=O)CCC)[C@@H](OC(=O)/C=C/C(=O)OC)OC[C@H]1OC(=O)CCC` [Compound 8, Methyl ((2R,3R,4S,5R)-3,4,5-tris(butyryloxy)tetrahydro-2H-pyran-2-yl) fumarate], the “Assay 3 (% Remaining at 24 h)” value [1] was “C (C: >75% of the tested compound remaining)”, the “Assay 1 (SGF) (% Remaining @ 1 hour)” value [2] was “C (C: >75% of the tested compound remaining)” and the “Assay 2 (SIF) (% @ Remaining 4 hours)” value [3] was “A (A: <25% of the tested compound remaining)”.
